Assay results as given in patent US7169604B1, “Method for PR-39 peptide mediated selective inhibition of IκBα degradation” (Beth Israel Deaconess Medical Center, priority 1998, dated 2007).
Ends that are not written are not given here.

Assays:
[1] = molecular target: T1, 20S proteasome (Homo sapiens, UniProt P25788); assay: Co-immunoprecipitation of PR-39 and 20S subunits in ECV cells; format: binding; conditions: ECV304 cells transfected with PR-39 constructs; anti-PR-39 antibody
T1 construct: endogenous in cells; host or cells: ECV304 cells stably expressing porcine PR-39 constructs
From the text: In order to confirm that PR-39 and the a7 subunit interact in cells, a polyclonal anti-PR-39 antibody was used to immunoprecipitate PR-39 protein from EVC304 cells transfected with cDNA constructs corresponding either to the full length (EVC-PR-39) or exon 4 (39 amino acid C-terminal domain) (ECV-E4) of the porcine PR-39 gene.
Full-length porcine cDNA (containing the leader sequence) and a cDNA construct corresponding to the 4th exon of porcine PR-39 gene were cloned into eukaryotic expression vector pGRE5-2 (USB) and used to stably transfect an immortalized human endothelial cell line (ECV304, ATCC). For co-immunoprecipitation, wild type ECV, full-length PR-39 (ECV-PR-39) and exon 4 PR-39 (ECV-E4) transfected cells were cultured in 10% FBS-M199. Cells were lysed with the RIPA buffer, and equal amounts of total protein were pre-cleared with non-immune rabbit serum and protein G plus/protein A-agarose beads (Calbiochem). The cleared samples were incubated at 4° C. overnight with 20 μl of polyclonal anti-PR-39 antibody and 40 μl of protein G plus/protein A-agarose beads or with the beads alone. […]

[2] = system: IκBα; assay: IκBα protein levels in ECV304 cells by Western blotting; format: cell-based, human; conditions: ECV cells, 2 hr exposure, 100 or 50 nM
Description: For IκBα expression studies, normally proliferating wild type ECV304 cells (ECV) or ECV-PR-39 and ECV-E4 cells were lysed in the loading buffer, subjected to electrophoresis on 10% SDS-PAGE gel and transferred to a PVDF membrane. IκBα expression was then determined by Western blotting with anti-IκBα antibody (Santa Cruz, Inc.). ECV304 cells treated for 2 hr with 10 μM of lactacystin (LC) were used as control.
Western blotting of ECV cell lysate was carried out following 2 hr exposure to buffer (0) or 100 or 50 nM of PR-39. […] Clearly, exposure of wild type ECV304 cells to the synthetic PR-39 peptide led to a dose-dependent increase in IκBα levels.

[3] = system: IκBα; assay: TNF-α induced degradation of IκBα in U937 cells; format: cell-based, human; conditions: 45 min pretreatment with 100 nM, TNF-α 1 ng/ml, 10 min
Description: Tumor necrosis factor (TNF)-α is known to induce rapid degradation of IκBα by the Ub-proteasome pathway.
As shown by FIG. 1E, PR-39 prevents TNF-a induced degradation of IκBα. U937 cells were cultured in 10% FBs-RPMI medium in the absence (−) or presence of TNF-a (1 ng/ml). 10 min following TNF-α addition, the cells were washed and IκBα protein levels assessed by Western blotting.
Note that a […] 45 min of pretreatment with 100 nM of PR-39 or 10 μM of MG132 or lactacystin (LC) prior to addition of blocked TNF-α, blocked cytokine-induced degradation of IκBα expression.

[4] = system: IκBα; assay: IκBα degradation in mouse pancreas, caerulein-induced acute pancreatitis; format: in vivo; conditions: 10 mg/kg i.v. 1 hour before caerulein 50 μg/kg i.v.; 30 min later
Description: Male mice weighing 20-25 g (ICR, Charles River Laboratories, Wilmington, Mass.) were pretreated with PR-39 (10 mg/kg, i.v.) or physiological saline 1 hour before injecting 50 μg/kg i.v. of caerulein (Research Plus, Bayonne, N.J.) to induce acute pancreatitis. 30 min later the animals were sacrificed in a CO2 chamber and a 75-100 mg piece of pancreas was removed for Western blotting and NFκB gel shift assays.
As empirically shown, induction of acute pancreatitis by treatment with the cholecystokinin analog caerulein leads to the prompt disappearance of IκBα (FIG. 2B) and activation of NFκB-dependent transcription in the pancreas (FIG. 2C).

[5] = system: HSP70; assay: HSP70 expression by Western blotting; format: cell-based, human
[6] = system: IκBα; assay: IκBα phosphorylation in U937 cell culture; format: cell-based, human; conditions: U937 cells, 10 μM pretreatment, TNFα 1 ng/ml, 45 min
Description: To explore potential mechanisms of this selective inhibition, the effect of peptide administration on IκBα phosphorylation and ubiquitination was studied. It is known that TNF-α treatment leads to phosphorylation of IκBα, which is required for its subsequent ubiquitination. The result is indicated by FIG. 4A.
U937 cells cultured in the absence (−) or presence (+) of pretreatment with 10 μM PR-39 were exposed to 1 ng/ml TNFα. 45 min later the cells were lysed and subjected to SDS-PAGE and Western blotting with anti-IκBα antibody. Note the increased amount of the typical-appearing phosphorylated IκKBα band in PR-39 treated cells.

[7] = system: IκBα; assay: IκBα ubiquitination in HA-Ub expressing ECV304 cells; format: cell-based, human; conditions: 10 μM pretreatment, TNF-α 1 ng/ml
Description: ECV304 cells were stably transfected with a HA-tagged ubiquitin plasmid MT123 (kind gift of Dr. G. Walz, BIDMC). The clone with the highest expression of HA-ubiquitin was treated with 10 μM PR39 for 45 min followed by treatment with 1 ng/ml TNFα for 20 min. At that point, the cells were washed and lysed and IκBα was immunoprecipitated. Following SDS-PAGE and membrane transfer of the immunoprecipitated material, the HA-ubiquitinated IκBα was visualized by Western blotting with an anti-HA antibody (Santa Cruz).
To assess the effect of PR-39 peptide treatment on IκBα ubiquitination in intact cells, a stable ECV304-derived cell line expressing HA-tagged ubiquitin was generated. […] HA-Ub expressing ECV304 cells were exposed to 1 ng/ml TNF-α in the presence (+) or absence (−) of 10 μM PR-39 pretreatment. 45 min later the cells were lysed and subjected to IκBα immunoprecipitation followed by Western blotting of the pellet material with anti-HA antibody. Note the presence of multiple ubiquitinated IκBα intermediaries in PR-39 peptide treated cells but not in control cells.

In the case of “RRRPRPPYLPRPRPPPFFPPRLPPRIPPGFPPRFPPRFP [PR-39]”, the “binding to 20S proteasome (co-immunoprecipitation of α7 and α2 subunits)” value [1] was “can bind to the 20S proteasome particle via an interaction with the a7 subunit”, the IκBα protein levels [2] was “dose-dependent increase in IκBα protein levels” and the “TNF-α caused decline of the level of IκBα” value [3] was “markedly reduced”. For the same sequence, the “IκBα in mouse pancreas (Western blotting)” value [4] was “preservation of IκBα”, the HSP70 expression ([5]; U937 cells, 1 μM, 3 hr exposure) was “lack of induction of HSP70 expression” and the HSP70 levels ([5]; cultured ECV304 cells, 10 μM) was “failed to stimulate HSP70 accumulation”. The “amount of phosphorylated IκBα” value [6] was “increased the amount of the phosphorylated form of IκBα” and the “ubiquitinated IκBα in cells” value [7] was “accumulation of more ubiquitinated IκBα complexes”.
